# In ChEMBL document CHEMBL1128785, “Modifications of the MeBmt side chain of cyclosporin A” (Bioorg Med Chem Lett, 1995):
# Columns and labels:
# Format in all cases: functional
# [1] = biological target: T1, Interleukin-2 (Mus musculus) (UniProt P04351); experiment: Tested in vitro for inhibition of Interleukin-2 (IL-2) release; 100 times less active than cyclosporin A
# T1 sequence (whole entry): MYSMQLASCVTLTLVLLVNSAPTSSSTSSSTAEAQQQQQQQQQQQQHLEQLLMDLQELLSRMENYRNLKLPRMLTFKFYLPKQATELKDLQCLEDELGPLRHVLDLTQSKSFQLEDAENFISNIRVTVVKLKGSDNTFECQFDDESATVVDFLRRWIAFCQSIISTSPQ
# [2] = Tested in vitro for mixed Lymphocyte reaction; 100 times less active than cyclosporin A
# [3] = Tested in vitro for mixed Lymphocyte reaction; 2-3 times less active than compound 1
# [4] = biological target: T1, Interleukin-2 (Mus musculus); experiment: Tested in vitro for inhibition of Interleukin-2 (IL-2) release; 2-3 times less active than compound 1
SMILES,Activity [1],Activity [4],Activity [2],Activity [3]
CC[C@@H]1NC(=O)[C@H]([C@@H]2O[C@]3(O)CC[C@@H]3C[C@H]2C)N(C)C(=O)[C@H](C(C)C)N(C)C(=O)[C@H](CC(C)C)N(C)C(=O)[C@H](CC(C)C)N(C)C(=O)[C@@H](C)NC(=O)[C@H](C)NC(=O)[C@H](CC(C)C)N(C)C(=O)[C@H](C(C)C)NC(=O)[C@H](CC(C)C)N(C)C(=O)CN(C)C1=O,100 times less active than cyclosporin A,,100 times less active than cyclosporin A,
CC[C@@H]1NC(=O)[C@H]([C@H](O[Si](C)(C)C(C)(C)C)[C@H](C)C[C@H]2OC23CC3)N(C)C(=O)[C@H](C(C)C)N(C)C(=O)[C@H](CC(C)C)N(C)C(=O)[C@H](CC(C)C)N(C)C(=O)[C@@H](C)NC(=O)[C@H](C)NC(=O)[C@H](CC(C)C)N(C)C(=O)[C@H](C(C)C)NC(=O)[C@H](CC(C)C)N(C)C(=O)CN(C)C1=O,100 times less active than cyclosporin A,,100 times less active than cyclosporin A,
CC[C@@H]1NC(=O)[C@H]([C@@H]2OC(C(C)=O)C[C@H]2C)N(C)C(=O)[C@H](C(C)C)N(C)C(=O)[C@H](CC(C)C)N(C)C(=O)[C@H](CC(C)C)N(C)C(=O)[C@@H](C)NC(=O)[C@H](C)NC(=O)[C@H](CC(C)C)N(C)C(=O)[C@H](C(C)C)NC(=O)[C@H](CC(C)C)N(C)C(=O)CN(C)C1=O (stereo not given in full),100 times less active than cyclosporin A,,100 times less active than cyclosporin A,

# Now from value to compound, other results behind:
Activity [1],Activity [4],SMILES,Activity [2],Activity [3]
,2-3 times less active than compound 1,CC[C@@H]1NC(=O)[C@H]([C@H](O)[C@H](C)C[C@@H]2C[C@H]2C)N(C)C(=O)[C@H](C(C)C)N(C)C(=O)[C@H](CC(C)C)N(C)C(=O)[C@H](CC(C)C)N(C)C(=O)[C@@H](C)NC(=O)[C@H](C)NC(=O)[C@H](CC(C)C)N(C)C(=O)[C@H](C(C)C)NC(=O)[C@H](CC(C)C)N(C)C(=O)CN(C)C1=O,,2-3 times less active than compound 1
,2-3 times less active than compound 1,CC=C=CC[C@@H](C)[C@@H](O)[C@H]1C(=O)N[C@@H](CC)C(=O)N(C)CC(=O)N(C)[C@@H](CC(C)C)C(=O)N[C@@H](C(C)C)C(=O)N(C)[C@@H](CC(C)C)C(=O)N[C@@H](C)C(=O)N[C@H](C)C(=O)N(C)[C@@H](CC(C)C)C(=O)N(C)[C@@H](CC(C)C)C(=O)N(C)[C@@H](C(C)C)C(=O)N1C,,2-3 times less active than compound 1
